Data from paper PMC6472966 (Analytical and bioanalytical chemistry, 2019).

Key:
[1] = cited from earlier work
[2] = bulk, off-chip studies; cited from earlier work
HeLa cells = format: cell-based; conditions: 10 μM peptide, 60 min at 37°C, hierarchical cluster analysis, Fig. 4a
[3] = at high concentrations; cited from earlier work

Substance: Ac-OWVRVpGO(FAM)WIRQ-NH2 [OWRWR]
- stability under intracellular conditions compared to TAT and ARG [1]: enhanced stability

Substance: FAM-RRRRRRRRR [ARG]
- permeability efficiency on average compared to OWRWR and RWRWR [2]: higher permeability efficiencies
- normalized fluorescence of the largest cluster (subpopulation) (HeLa cells): ~ 1200

Substance: FAM-YGRKKRRQRRR [TAT]
- cytotoxicity [3]: high cytotoxicity
- permeability efficiency on average compared to OWRWR and RWRWR [2]: higher permeability efficiencies
